In patent publication US20140323504A1, “Pyrazolo[4,3-c]Pyridine Derivatives As Kinase Inhibitors” (Cellzome Limited, priority 2011, published 2014):

Columns and labels:
[1] = biological target: T1, TEC (Homo sapiens, UniProt P42680); test: Kinobeads assay with quantitative mass spectrometry, TEC; assay type: binding; conditions: Jurkat/Ramos lysate, read-out: TEC inhibition value (IC50)
T1 construct: endogenous in cells; host or cells: 1:1 mix of Jurkat and Ramos cell lysates
T1 sequence (P42680 1-631): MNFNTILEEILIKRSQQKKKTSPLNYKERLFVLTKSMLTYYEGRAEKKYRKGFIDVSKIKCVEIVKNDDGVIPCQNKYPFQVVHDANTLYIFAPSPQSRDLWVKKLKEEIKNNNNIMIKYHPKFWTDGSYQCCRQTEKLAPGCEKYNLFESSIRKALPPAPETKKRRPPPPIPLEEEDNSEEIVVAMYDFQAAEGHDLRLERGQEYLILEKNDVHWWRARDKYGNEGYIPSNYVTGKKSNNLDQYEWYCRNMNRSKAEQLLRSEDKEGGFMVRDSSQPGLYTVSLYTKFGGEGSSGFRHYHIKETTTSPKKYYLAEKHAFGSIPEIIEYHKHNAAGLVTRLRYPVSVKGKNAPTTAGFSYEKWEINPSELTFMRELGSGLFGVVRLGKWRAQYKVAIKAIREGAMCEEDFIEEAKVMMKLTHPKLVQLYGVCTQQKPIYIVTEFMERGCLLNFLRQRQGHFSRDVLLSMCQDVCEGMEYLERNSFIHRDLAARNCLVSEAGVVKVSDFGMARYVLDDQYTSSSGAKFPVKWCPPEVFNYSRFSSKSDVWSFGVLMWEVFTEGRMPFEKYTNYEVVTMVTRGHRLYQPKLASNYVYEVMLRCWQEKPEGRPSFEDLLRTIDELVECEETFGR
Procedure: Selected compounds of the present invention as described in the previous examples were tested in a Kinobeads™ assay as described (WO-A 2006/134056; Bantscheff et al., 2007. Nature Bioteclmol. 25, 1035-1044).
Compounds were incubated with cell lysate aliquots (1:1 mix of Jurkat and Ramos cell lysates) for 45 minutes at 4° C. and allowed to bind to the proteins in the lysate sample. Then the Kinobeads™ affinity matrix was added to capture proteins that were not interacting with the previously added compound. After this two hour incubation step at 4° C. beads were separated from the lysate and bead bound proteins were eluted in SDS sample buffer and subsequently separated by SDS-Polyacrylamide gel electrophoresis. […] The TMT reagents are a set of multiplexed, amine-specific, stable isotope reagents that can label peptides in up to six different biological samples enabling simultaneous identification and quantitation of peptides. The combined samples were fractionated using reversed-phase chromatography at pH 11 and fractions were subsequently analyzed with a nano-flow liquid chromatography system coupled online to a tandem mass spectrometer (LC-MSMS) experiment followed by reporter ion quantification in the MSMS spectra (Ross et al., 2004. Mol. Cell. Proteomics 3(12):1154-1169; Dayon et al., 2008. Anal. Chem. 80(8):2921-2931; Thompson et al., 2003. Anal. Chem. 75(8):1895-1904). […]

[2] = biological target: T2, BLK (Homo sapiens, UniProt P51451); test: Radiometric protein kinase assay (33PanQinase, ProQinase), BLK; assay type: biochemical; conditions: ATP at apparent Km; read-out: BLK enzyme assay IC50
T2 construct: endogenous in cells; host or cells: 1:1 mix of Jurkat and Ramos cell lysates
T2 sequence (P51451 whole entry): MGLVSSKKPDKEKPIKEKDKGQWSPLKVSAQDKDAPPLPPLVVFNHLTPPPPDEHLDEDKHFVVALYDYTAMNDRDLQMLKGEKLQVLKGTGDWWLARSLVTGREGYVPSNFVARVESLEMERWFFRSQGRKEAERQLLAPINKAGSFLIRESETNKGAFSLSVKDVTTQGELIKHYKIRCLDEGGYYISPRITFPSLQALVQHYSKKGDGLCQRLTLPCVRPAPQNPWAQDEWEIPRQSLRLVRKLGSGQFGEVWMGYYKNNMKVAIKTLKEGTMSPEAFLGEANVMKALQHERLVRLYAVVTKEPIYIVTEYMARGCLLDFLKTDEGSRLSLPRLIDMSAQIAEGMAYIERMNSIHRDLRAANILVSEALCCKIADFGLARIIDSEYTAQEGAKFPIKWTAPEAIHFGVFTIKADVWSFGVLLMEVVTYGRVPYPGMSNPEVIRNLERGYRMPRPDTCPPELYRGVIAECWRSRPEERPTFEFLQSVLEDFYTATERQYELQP
Procedure: A radiometric protein kinase assay (^33PanQinase® Activity Assay; ProQinase GmbH, Freiburg, Germany) was used for measuring the kinase activity of the protein kinases BLK, BTK, ITK and JAK3. All kinase assays were performed in 96-well FlashPlates™ from PerkinElmer (Boston, Mass., USA) in a 50 μl reaction volume. The reaction cocktail was pipetted in four steps in the following order: • 20 μl of assay buffer (standard buffer) • 5 μl of ATP solution (in H2O) • 5 μl of test compound (in 10% DMSO) • 10 μl of substrate/10 μl of enzyme solution (premixed)
The reaction cocktails were incubated at 30° C. for 60 minutes. The reaction was stopped with 50 μl of 2% (v/v) H3PO4, plates were aspirated and washed two times with 200 μl 0.9% (w/v) NaCl. Incorporation of ^33Pi was determined with a microplate scintillation counter (Microbeta, Wallac). All assays were performed with a BeckmanCoulter/SAGIAN™ Core System.

Row | IC50 [1] [nM] | IC50 [2] [nM] | Compound
1 | 34 | 2000 | C=CC(=O)Nc1cc(Cn2ncc3cnc(Nc4cnn(C)c4)nc32)ccc1F [Example 2, […]]
2 | 12 | – | C=CC(=O)Nc1cccc(Cn2ncc3cnc(Nc4cnn(C)c4)nc32)c1 [Example 1, N-(3-((6-((1-Methyl-1H-pyrazol-4-yl)amino)-1H-pyrazolo[3,4-d]pyrimidin-1-yl)methyl)phenyl)acrylamide]
